Data set [1] deals with human D2 receptor (Homo sapiens (Human), UniProt P14416). Briefly: Radioligand binding assay, [3H]-spiperone, human D2 receptor. The note with it: membranes of HEK293 EBNA cells expressing human D2; 0.7 nM [3H]-spiperone. The gist of the method:
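Competition binding used ~0.7 nM [3H]-spiperone, 1 h at room temperature, pH 7.4 Tris/salt buffer, on transiently transfected HEK293 EBNA membranes bearing human D2.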

The target of data set [2] is human 5-HT2A receptor (Homo sapiens (Human), UniProt P28223). Briefly: Radioligand binding assay, [3H]-ketanserin, human 5-HT2A receptor. The gist of the method:
(§1)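 Incubation was 1 h at RT, using 1.1 nM [3H]-ketanserin at 5-HT2A or 0.5 nM [3H]-spiperone at D3, on membranes of transiently transfected HEK293 EBNA cells. Nonspecific binding was set with 10 μM unlabelled spiperone.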

Data set [3] concerns the target human D3 receptor (Homo sapiens (Human), UniProt P35462). The data set is described as follows: Radioligand binding assay, [3H]-spiperone, human D3 receptor. The note with it: membranes of HEK293 EBNA cells expressing human D3; 0.5 nM [3H]-spiperone. In short, it runs like this:
as §1

pKi: −log10 of the molar value.

Chain of human 5-HT2A receptor (P28223 whole entry): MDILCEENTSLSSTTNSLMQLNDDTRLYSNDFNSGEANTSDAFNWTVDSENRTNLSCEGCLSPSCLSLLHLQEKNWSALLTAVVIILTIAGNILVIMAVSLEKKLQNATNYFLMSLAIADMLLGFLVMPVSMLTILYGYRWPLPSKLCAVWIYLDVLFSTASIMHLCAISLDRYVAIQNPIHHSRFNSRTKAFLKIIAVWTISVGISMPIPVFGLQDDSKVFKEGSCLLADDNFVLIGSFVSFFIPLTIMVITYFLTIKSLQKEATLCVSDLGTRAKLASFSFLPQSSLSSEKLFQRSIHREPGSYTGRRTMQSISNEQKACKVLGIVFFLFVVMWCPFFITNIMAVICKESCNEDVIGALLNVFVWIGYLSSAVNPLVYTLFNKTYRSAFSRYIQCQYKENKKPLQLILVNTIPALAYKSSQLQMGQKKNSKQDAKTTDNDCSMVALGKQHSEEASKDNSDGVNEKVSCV
Chain of human D2 receptor (P14416 whole entry): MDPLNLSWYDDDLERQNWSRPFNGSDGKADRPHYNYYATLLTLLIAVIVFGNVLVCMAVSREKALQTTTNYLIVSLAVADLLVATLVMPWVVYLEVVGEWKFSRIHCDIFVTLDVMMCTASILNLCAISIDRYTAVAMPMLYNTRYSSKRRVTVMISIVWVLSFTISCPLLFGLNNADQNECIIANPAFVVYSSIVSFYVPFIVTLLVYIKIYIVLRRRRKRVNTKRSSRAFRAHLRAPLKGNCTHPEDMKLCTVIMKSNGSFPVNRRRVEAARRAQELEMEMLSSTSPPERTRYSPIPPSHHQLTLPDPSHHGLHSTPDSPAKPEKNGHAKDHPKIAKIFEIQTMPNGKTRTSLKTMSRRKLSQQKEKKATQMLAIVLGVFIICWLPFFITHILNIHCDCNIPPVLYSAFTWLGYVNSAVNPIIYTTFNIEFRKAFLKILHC
Chain of human D3 receptor (P35462 whole entry): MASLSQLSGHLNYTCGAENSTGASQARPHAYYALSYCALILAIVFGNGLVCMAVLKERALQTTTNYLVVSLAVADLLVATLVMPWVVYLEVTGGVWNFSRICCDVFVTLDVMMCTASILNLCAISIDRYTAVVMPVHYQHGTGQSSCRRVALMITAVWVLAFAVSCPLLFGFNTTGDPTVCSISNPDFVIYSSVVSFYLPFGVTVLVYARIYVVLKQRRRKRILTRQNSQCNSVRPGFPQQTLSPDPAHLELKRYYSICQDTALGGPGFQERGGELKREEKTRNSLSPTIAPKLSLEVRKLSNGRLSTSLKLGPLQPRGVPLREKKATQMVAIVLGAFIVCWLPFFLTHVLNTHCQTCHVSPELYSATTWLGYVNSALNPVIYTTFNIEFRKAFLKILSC

`O=C(CC1(O)CCC1)N[C@H]1CC[C@H](CCN2CCN(c3nccc4c3CCO4)CC2)CC1` [Example 141, trans-N-(4-{2-[4-(2,3-Dihydro-furo[3,2-c]pyridin-4-yl)-piperazin-1-yl]-ethyl}-cyclohexyl)-2-(1-hydroxy-cyclobutyl)-acetamide] showed a melting point of 155 °C. For the same molecule, in data set [1], the pKi was 6.39. In addition, the pKi in data set [2] is 7.65. For the same molecule, the pKi in data set [3] is 7.59.

The pKi is the Ki on a negative log10 scale, so that one unit is a factor of ten. In general, melting point refers to the temperature, or range, at which the solid turns liquid.

The values above are taken from patent publication US8586579B2, “Anellated pyridine compounds” (Hoffmann-La Roche Inc., priority 2010, dated 2013).
